Data set [1] concerns N. fowleri trophozoites. The experiment in a line: Amoebicidal assay against N. fowleri trophozoites (Trypan blue). It counts as cell-based, Naegleria fowleri. As to conditions: for pEC50 / minimal effective concentration: Naegleria fowleri; for pEC50: read-out: Half maximal effective concentration (EC50), N. fowleri; for minimal effective concentration: read-out: Lowest concentration showing significant amoebicidal activity against N. fowleri; for Amoebicidal activity against N. fowleri: summary in discussion, concentration not given. As for the experimental part:
(§1) Amoebicidal assays were performed as previously described. Briefly, 5 × 10^5 amoebae (N. fowleri and B. mandrillaris cells) were incubated with drugs and/or solvents in 24-well plates in RPMI-1640. Amoebae were incubated with RPMI-1640 for negative controls while DMSO and ethanol were used as solvent control. For the positive control, the anti-amoebic drug, 100 μM miltefosine was used. Plates were incubated at 37 °C and 5% CO2 for 24 h. Next, 0.1% Trypan blue was added to each well. […] The number of live cells (i.e., unstained) was counted using a haemocytometer to determine amoebicidal effects of various compounds. The data are representative of the mean ± standard error of several experiments performed in duplicate.
Figure 1 The amoebicidal activities of compounds against N. fowleri trophozoites. N. fowleri trophozoites were incubated with various concentrations of compounds for 24 h and trophozoites viability was determined using Trypan blue. Percentage amoebicidal activity was calculated by: [((RPMI cell count − cell count for sample)/RPMI cell count) × 100)]. The activities of solvents alone were negated from the activities of the compounds. The data is presented as the mean ± standard error (*: p < 0.05, **: p < 0.01, ***: p < 0.001 using student t-test; two tailed distribution).

For data set [2], the system named is B. mandrillaris trophozoites. The experiment in a line: Amoebicidal assay against B. mandrillaris trophozoites (Trypan blue). The format is cell-based, Balamuthia mandrillaris. As to conditions: for pEC50 / Concentration showing significant amoebicidal activity against B. mandrillaris: 24 h; for pEC50: read-out: Half maximal effective concentration (EC50), B. mandrillaris; for Amoebicidal activity against B. mandrillaris: summary in discussion, concentration not given; for Concentration showing significant amoebicidal activity against B. mandrillaris: compared to solvent control. As for the experimental part: as §1
Figure 2 The amoebicidal activities of compounds against B. mandrillaris trophozoites. B. mandrillaris trophozoites were incubated with various concentrations of compounds for 24 h and trophozoites viability was determined using Trypan blue. Percentage amoebicidal activity was calculated by: [((RPMI cell count − cell count for sample)/RPMI cell count) × 100)]. The activities of solvents alone were negated from the activities of the compounds. The data is presented as the mean ± standard error (*: p < 0.05, **: p < 0.01, ***: p < 0.001 using student t-test; two tailed distribution).

In data set [3] the test system is N. fowleri cysts. The experiment in a line: Excystation assay, N. fowleri cysts. The format is cell-based, Naegleria fowleri. As to conditions: for inhibition at 100 µM: Naegleria fowleri, read-out: Inhibition of excystation of N. fowleri. As for the experimental part:
(§2) Briefly, 5 × 10^5 amoebae cysts (N. fowleri and B. mandrillaris cells) were incubated with 100 μM drugs and/or solvent in 24-well plates containing RPMI-1640 on HeLa monolayers at 37 °C and 5% CO2 until around 75% of the cysts in RPMI-1640 alone have excysted. The RPMI-1640 alone was used as a negative control while DMSO and ethanol were used as a solvent control and 100 μM miltefosine was used as positive control. Live trophozoites (amoebae that excysted) were then quantified by counting live (unstained) cells, after addition of 0.1% Trypan blue to each well, using a haemocytometer. Percentage inhibition is defined as: [(Number of trophozoites in untreated well − Number of trophozoites in treated well)/Number of trophozoites in untreated well)] × 100. The data are representative of the mean ± standard error of several independent experiments performed in duplicate.
(§3) Figure 3 (A) Inhibition of excystation of N. fowleri cysts. N. fowleri cysts were incubated with 100 μM drugs and/or solvent in 24-well plates containing RPMI-1640 on HeLa monolayers for 24 h and number of viable trophozoites were then enumerated. Percentage inhibition of excystation was calculated by: [((RPMI trophozoite cell count − trophozoite cell count for sample)/RPMI trophozoite cell count) × 100)]. The activities of solvents alone were negated from the activities of the compounds. The data is presented as the mean ± standard error (*: p ˂ 0.05, **: p < 0.01, ***: p < 0.001 using student t-test; two tailed distribution). (B) Inhibition of excystation of B. mandrillaris cysts. B. mandrillaris cysts were incubated with 100 μM drugs and/or solvent in 24-well plates containing RPMI-1640 on HeLa monolayers for 24 h and number of viable trophozoites were then enumerated. Percentage inhibition of excystation was calculated by: [((RPMI trophozoite cell count − trophozoite cell count for sample)/RPMI trophozoite cell count) × 100)]. The activities of solvents alone were negated from the activities of the compounds. The data is presented as the mean ± standard error (*: p ˂ 0.05, **: p < 0.01, ***: p < 0.001 using student t-test; two tailed distribution).

The test system of data set [4] is B. mandrillaris cysts. Kind of data set: Excystation assay, B. mandrillaris cysts. It counts as cell-based. As to conditions: Balamuthia mandrillaris, read-out: Inhibition of excystation of B. mandrillaris. As for the experimental part: as §2, §3
On the set-up of data set [5]: method as in PMID 29206032, PMID 32548431. As to conditions: ref [24],[25],[26]; cited from earlier work.
Data set [6] deals with HaCaT cells. It counts as cell-based, human. As for the experimental part: Cytotoxic effects of the drugs were determined as previously described^21. Briefly, the cytotoxic activity of the drugs was investigated against HaCaT cells. […] The LDH assay protocol is based on an enzymatic reaction, i.e., LDH released from the cell oxidizes lactate to generate NADH, which then reacts with water-soluble tetrazolium salt (WST) to generate a yellow color. The intensity of the generated color correlates directly with the number of lyzed cells. Following this, 1% Triton X-100 was added to the positive control well and incubated the plate for 60 min at 37 °C. For negative control, human cells were grown in RPMI alone well. Then, an equal amount of cells supernatant (comprising LDH enzyme) from each well was combined with equal amount of LDH kit reagents and cytotoxicity was determined in proportion to LDH released from human cells using a spectrophotometer at 490 nm. The percentage LDH released was determined as follows: [(Absorbance of sample − Absorbance of control)/(Absorbance for total LDH release − Absorbance of control)] × 100 = percentage cytotoxicity.
Figure 4 Cytotoxic effects of compounds against human cells are depicted. Various concentrations of compounds were incubated with human cells for 24 h at 37 °C and 5% CO2. RPMI alone was used as negative control and triton X-100 was used as positive control. Data are presented as the mean ± standard error of 2 experiments conducted in duplicates.

Setting [7] is: compared to solvent control, p < 0.05, 24 h.
Setting [8] is: 100 μM, after negating effects of solvent alone.
Where [9] appears, read: LDH release, 24 h, concentration not given.
Setting [10] is: trophozoites, 24 h, Trypan blue.
[11] abbreviates: Balamuthia mandrillaris, trophozoites, Trypan blue.

pEC50: −log10 of the molar value. Read-outs that look alike come from different tables or passages of the source.

Consider `C[C@H]1O[C@H](O[C@H]2[C@H](O)[C@@H](O)[C@@H](O[C@H]3[C@H](O)[C@@H](O)C(O)O[C@@H]3CO)O[C@@H]2CO)[C@H](O)[C@@H](O)[C@@H]1N[C@H]1C=C(CO)[C@@H](O)[C@H](O)[C@H]1O` (stereo partly drawn) [Acarbose, (3R,4R,5S,6R)-5-[(2R,3R,4R,5S,6R)-5-[(2R,3R,4S,5S,6R)-3,4-dihydroxy-6-methyl-5-[[(1S,4R,5S,6S)-4,5,6-trihydroxy-3-(hydroxymethyl)cyclohex-2-en-1-yl]amino]oxan-2-yl]oxy-3,4-dihydroxy-6-(hydroxymethyl)oxan-2-yl]oxy-6-(hydroxymethyl)oxane-2,3,4-triol], for which the pEC50 in data set [1] (24 h) is 5.44; in data set [2] (Balamuthia mandrillaris), 4.09. Besides, in data set [1] (setting [7]), the minimal effective concentration is at least 25 µM. Further, the “Amoebicidal activity against N. fowleri” value in data set [1] stood at 74%. In data set [2], the “Amoebicidal activity against B. mandrillaris” value is 60%. Also, the inhibition at 100 µM is 17% in data set [3] (setting [8]) and under 10% in data set [4] (setting [8]). Moreover, the “BBB Permeability” value in data set [5] is “Negative”.
Take `N#Cc1c(Cl)cccc1Cl` [Dichlobenil (2,6-DNBT), 2,6-dichlorobenzonitrile]: in data set [1] (24 h), the pEC50 is 4.62 and the minimal effective concentration is at least 6.25 µM. Moreover, the “Amoebicidal activity against N. fowleri” value in data set [1] was 69%. In data set [2] (Balamuthia mandrillaris), the pEC50 was 4.40. For the same compound, in data set [2], the “Concentration showing significant amoebicidal activity against B. mandrillaris” value stood at 25 µM and the “Amoebicidal activity against B. mandrillaris” value is 60%. In data set [3], the inhibition at 100 µM was 45%. In data set [4], the inhibition at 100 µM came out at 45%. In addition, the “Cytotoxicity against HaCaT cells” value in data set [6] (human, 24 h) was 3%.
On to `Cc1ccc2c(c1)C(Nc1nc(N)nc(C(C)F)n1)C(C)C2` (stereo not shown) [Indaziflam, N-(2,3-dihydro-2,6-dimethyl-1H-inden-1-yl)-6-(1-fluoroethyl)-1,3,5-triazine-2,4-diamine], for which, in data set [1] (24 h), the pEC50 is 4.27 and the minimal effective concentration is 12.5 µM. The “Amoebicidal activity against N. fowleri” value in data set [1] turned out to be 62%. Moreover, the pEC50 in data set [2] (Balamuthia mandrillaris) is 4.00. Moreover, in data set [2], the “Concentration showing significant amoebicidal activity against B. mandrillaris” value is recorded as 50 µM and the “Amoebicidal activity against B. mandrillaris” value was 52%. In data set [3], the inhibition at 100 µM is 68%. In addition, in data set [4], the inhibition at 100 µM came to 52%. In addition, in data set [6] (setting [9]), the “Cytotoxicity against HaCaT cells” value was determined as 4%.
Consider `OC1C(O)C(O)C(O)C(O)C1O` (stereo not shown) [Inositol, cyclohexane-1,2,3,4,5,6-hexol], for which, in data set [1] (setting [7]), the minimal effective concentration was at least 6.25 µM. Further, the values for the pEC50 in data set [1] (setting [10]) and in data set [2] (setting [11]) were 4.31 and 3.91, respectively. In addition, the “Concentration showing significant amoebicidal activity against B. mandrillaris” value in data set [2] is reported as 6.25 µM. The inhibition at 100 µM in data set [3] (setting [8]) amounted to 12%. For the same compound, the “Cytotoxicity against HaCaT cells” value in data set [6] (setting [9]) amounted to 4%. The “BBB Permeability” value in data set [5] is “Present in brain”.
As for `CN(C)C(=N)NC(=N)N` [Metformin, 1-carbamimidamido-N,N-dimethylmethanimidamide], the pEC50 in data set [1] (24 h) is 3.87. Moreover, in data set [1] (setting [7]), the minimal effective concentration was determined as 12.5 µM. Also, the “Inhibition of excystation of N. fowleri” value in data set [3] (setting [8]) was “did not inhibit excystation”.
As for `O=C(O)c1c(Cl)ccc2cc(Cl)cnc12` [Quinclorac, 3,7-Dichloro-8-quinolinecarboxylic acid], the minimal effective concentration in data set [1] (setting [7]) was at least 25 µM. Besides, the values for the pEC50 in data set [1] (setting [10]) and in data set [2] (setting [11]) were 3.99 and 3.53, respectively. Moreover, the “Concentration showing significant amoebicidal activity against B. mandrillaris” value in data set [2] was determined as 50 µM. For the same compound, the inhibition at 100 µM in data set [3] (setting [8]) was determined as 30%; in data set [4] (setting [8]), 53%. For the same compound, the “Cytotoxicity against HaCaT cells” value in data set [6] (setting [9]) is 6%.
For `CCNc1nc(Cl)nc(NC(C)(C)C)n1` [Terbuthylazine, 2-N-tert-butyl-6-chloro-4-N-ethyl-1,3,5-triazine-2,4-diamine], the minimal effective concentration in data set [1] (setting [7]) was at least 3.13 µM. Moreover, the pEC50 in data set [1] (setting [10]) is 5.12; in data set [2] (setting [11]), 4.20. Besides, the “Amoebicidal activity against N. fowleri” value in data set [1] came out at 63%. For the same compound, the “Amoebicidal activity against B. mandrillaris” value in data set [2] worked out at 61%. The values for the inhibition at 100 µM in data set [3] (setting [8]) and in data set [4] (setting [8]) were 29% and under 10%, respectively. The “Cytotoxicity against HaCaT cells” value in data set [6] (setting [9]) is given as 2%.
In the case of `CN1C(=O)[C@](O)(Cc2cccc(O)c2)N(C)C(=O)[C@@H]1Cc1c[nH]c2cccc([N+](=O)[O-])c12` [Thaxtomin A, (3R,6S)-3-hydroxy-3-[(3-hydroxyphenyl)methyl]-1,4-dimethyl-6-[(4-nitro-1H-indol-3-yl)methyl]piperazine-2,5-dione], the pEC50 was 4.02 in data set [1] (24 h) and 4.41 in data set [2] (Balamuthia mandrillaris). In addition, in data set [1] (setting [7]), the “Lowest concentration showing significant amoebicidal activity against N. fowleri” value was “did not show anti-N. fowleri effects at any concentration tested”. The inhibition at 100 µM in data set [3] was 22%; in data set [4], under 10%. In data set [6] (setting [9]), the “Cytotoxicity against HaCaT cells” value came to 4%.
Consider `O=C(O)/C=C/c1ccccc1` [Trans-cinnamic acid, (E)-3-phenylprop-2-enoic acid], for which the minimal effective concentration in data set [1] (setting [7]) was at least 3.13 µM. Further, in data set [1] (setting [10]), the pEC50 is 5.03. Besides, the inhibition at 100 µM is 59% in data set [3] (setting [8]) and 32% in data set [4] (setting [8]). The “Cytotoxicity against HaCaT cells” value in data set [6] (setting [9]) is given as 8%.
Regarding Cellulase, the “Lowest concentration showing significant amoebicidal activity against N. fowleri” value in data set [1] (setting [7]) is given as “did not show anti-N. fowleri effects at any concentration tested”. The “Concentration showing significant amoebicidal activity against B. mandrillaris” value in data set [2] was found to be 100 µM. The pEC50 in data set [2] (trophozoites, Trypan blue) was 3.97. Moreover, the “Inhibition of excystation of N. fowleri” value in data set [3] (setting [8]) was determined as 39%. Moreover, the “Cytotoxicity against HaCaT cells” value in data set [6] is given as “did not exhibit any cytotoxicity”.

What is called inhibition is the share of the control response that was lost under treatment.
